ChEMBL document CHEMBL5058564, “EUbOPEN Chemogenomics Library 2 (Incucyte)” (2022)

Key:
Type in all cases: toxicity, cell-based
Fibroblast = test: Incucyte cell viability with human fibroblast; conditions: 10 µM, compound concentration 10 uM
U2OS = test: Incucyte cell viability with U2OS; conditions: human, 10 µM, compound concentration 10 uM
HEK-293T = test: Incucyte cell viability with HEK293T; conditions: human, 10 µM, compound concentration 10 uM
[1] = 0 h, replicate number 1, timepoint 0 hours
[2] = 0 h, replicate number 2, timepoint 0 hours
[3] = 6 h, replicate number 1, timepoint 6 hours
[4] = 6 h, replicate number 2, timepoint 6 hours
[5] = 12 h, replicate number 1, timepoint 12 hours
[6] = 12 h, replicate number 2, timepoint 12 hours
[7] = 18 h, replicate number 1, timepoint 18 hours
[8] = 18 h, replicate number 2, timepoint 18 hours
[9] = 24 h, replicate number 1, timepoint 24 hours
[10] = 24 h, replicate number 2, timepoint 24 hours
Note: unitless GR value; below 1 slowed growth and below 0 cell loss.

N#Cc1c(N)nc(SCc2csc(-c3ccc(Cl)cc3)n2)c(C#N)c1-c1ccc(OCCO)cc1 [CAPADENOSON]
Growth Rate (Fibroblast; [1]): 0.09 | Growth Rate (Fibroblast; [2]): -0.41 | Growth Rate (Fibroblast; [3]): -0.5 | Growth Rate (Fibroblast; [4]): 0.85 | Growth Rate (Fibroblast; [5]): -0.47 | Growth Rate (Fibroblast; [6]): 0.37 | Growth Rate (Fibroblast; [7]): -0.41 | Growth Rate (Fibroblast; [8]): 0.66 | Growth Rate (Fibroblast; [9]): -0.34 | Growth Rate (Fibroblast; [10]): 0.54 | Growth Rate (U2OS; [1]): 0.75 | Growth Rate (U2OS; [2]): 0.97 | Growth Rate (U2OS; [3]): 0.52 | Growth Rate (U2OS; [5]): 0.6 | Growth Rate (U2OS; [6]): 0.81 | Growth Rate (U2OS; [7]): 0.66 | Growth Rate (U2OS; [8]): 0.87 | Growth Rate (U2OS; [9]): 0.79 | Growth Rate (U2OS; [10]): 0.83 | Growth Rate (HEK-293T; [1]): 0.41 | Growth Rate (HEK-293T; [2]): 0.32 | Growth Rate (HEK-293T; [3]): 0.99 | Growth Rate (HEK-293T; [4]): 0.69 | Growth Rate (HEK-293T; [5]): 0.54 | Growth Rate (HEK-293T; [6]): 0.46 | Growth Rate (HEK-293T; [7]): 0.36 | Growth Rate (HEK-293T; [8]): 0.44 | Growth Rate (HEK-293T; [9]): 0.31 | Growth Rate (HEK-293T; [10]): 0.41

CCCN(CCc1cccs1)[C@H]1CCc2c(O)cccc2C1 [ROTIGOTINE]
Growth Rate (Fibroblast; [2]): -0.39 | Growth Rate (Fibroblast; [3]): 0.1 | Growth Rate (Fibroblast; [5]): 0.84 | Growth Rate (U2OS; [1]): 0.77 | Growth Rate (U2OS; [3]): 0.95 | Growth Rate (U2OS; [5]): 0.96 | Growth Rate (HEK-293T; [1]): 0.77 | Growth Rate (HEK-293T; [2]): -1 | Growth Rate (HEK-293T; [9]): 0.99

COc1cc(OC)cc(C(=O)NNC(=O)Nc2cccc3ccccc23)c1
Growth Rate (Fibroblast; [3]): 0.64 | Growth Rate (Fibroblast; [5]): 0.93 | Growth Rate (U2OS; [1]): 0.7 | Growth Rate (U2OS; [2]): -1 | Growth Rate (U2OS; [3]): 0.36 | Growth Rate (U2OS; [5]): 1 | Growth Rate (U2OS; [6]): 0.87 | Growth Rate (U2OS; [7]): 0.78 | Growth Rate (U2OS; [8]): 0.77 | Growth Rate (U2OS; [9]): 0.87 | Growth Rate (U2OS; [10]): 0.86 | Growth Rate (HEK-293T; [1]): 0.01 | Growth Rate (HEK-293T; [2]): 0.45 | Growth Rate (HEK-293T; [7]): 0.97

N[C@@]1(C(=O)O)CC[C@H]2[C@H](C(=O)O)[C@H]21
Growth Rate (Fibroblast; [1]): -0.03 | Growth Rate (Fibroblast; [2]): 0.85 | Growth Rate (Fibroblast; [3]): 0.5 | Growth Rate (Fibroblast; [5]): 0.44 | Growth Rate (Fibroblast; [6]): 0.63 | Growth Rate (Fibroblast; [7]): 0.57 | Growth Rate (Fibroblast; [8]): 0.79 | Growth Rate (Fibroblast; [9]): 0.52 | Growth Rate (Fibroblast; [10]): 0.35 | Growth Rate (U2OS; [2]): -1 | Growth Rate (U2OS; [3]): 0.86 | Growth Rate (U2OS; [4]): 0.76 | Growth Rate (U2OS; [5]): 0.67 | Growth Rate (U2OS; [6]): 0.94 | Growth Rate (U2OS; [7]): 0.7 | Growth Rate (U2OS; [8]): 1 | Growth Rate (U2OS; [10]): 0.97 | Growth Rate (HEK-293T; [1]): 0.6 | Growth Rate (HEK-293T; [2]): 0.94 | Growth Rate (HEK-293T; [10]): 0.86

CCCCOCCOc1nc(-c2ccc(C(=O)O)c(F)c2)sc1C
Growth Rate (Fibroblast; [2]): -0.25 | Growth Rate (Fibroblast; [3]): 0.05 | Growth Rate (Fibroblast; [5]): 0.16 | Growth Rate (Fibroblast; [6]): 0.63 | Growth Rate (Fibroblast; [7]): 0.35 | Growth Rate (Fibroblast; [8]): 0.73 | Growth Rate (Fibroblast; [9]): 0.23 | Growth Rate (Fibroblast; [10]): 0.7 | Growth Rate (U2OS; [1]): -0.03 | Growth Rate (U2OS; [2]): -0.3 | Growth Rate (U2OS; [3]): 0.21 | Growth Rate (U2OS; [4]): 0.97 | Growth Rate (U2OS; [5]): 0.49 | Growth Rate (U2OS; [7]): 0.88 | Growth Rate (U2OS; [8]): 0.86 | Growth Rate (U2OS; [9]): 0.94 | Growth Rate (U2OS; [10]): 0.84 | Growth Rate (HEK-293T; [1]): 0.61 | Growth Rate (HEK-293T; [2]): 0.25 | Growth Rate (HEK-293T; [4]): 0.87 | Growth Rate (HEK-293T; [6]): 0.88 | Growth Rate (HEK-293T; [7]): 0.94 | Growth Rate (HEK-293T; [8]): 0.82 | Growth Rate (HEK-293T; [9]): 0.95 | Growth Rate (HEK-293T; [10]): 0.69

CN[C@@H]1C[C@H]2O[C@@](C)([C@@H]1OC)n1c3ccccc3c3c4c(c5c6ccccc6n2c5c31)C(=O)NC4 [STAUROSPORINE]
Growth Rate (Fibroblast; [1]): 0.05 | Growth Rate (Fibroblast; [2]): -0.7 | Growth Rate (Fibroblast; [5]): 0.41 | Growth Rate (Fibroblast; [7]): 0 | Growth Rate (Fibroblast; [8]): 0.61 | Growth Rate (Fibroblast; [9]): -0.13 | Growth Rate (Fibroblast; [10]): 0.35 | Growth Rate (U2OS; [7]): 0.79 | Growth Rate (U2OS; [8]): 0.69 | Growth Rate (U2OS; [9]): 0.65 | Growth Rate (U2OS; [10]): 0.49 | Growth Rate (HEK-293T; [1]): -0.75 | Growth Rate (HEK-293T; [2]): -0.46 | Growth Rate (HEK-293T; [7]): 0.33 | Growth Rate (HEK-293T; [8]): 0.42 | Growth Rate (HEK-293T; [9]): 0.11 | Growth Rate (HEK-293T; [10]): 0.09

CCCCC/C=C\C/C=C\C/C=C\C/C=C\CCCC(=O)NCC(=O)O [ARACHIDONOYL GLYCINE]
Growth Rate (Fibroblast; [1]): 0.41 | Growth Rate (Fibroblast; [2]): 0.25 | Growth Rate (Fibroblast; [3]): 0.18 | Growth Rate (Fibroblast; [4]): 0.75 | Growth Rate (Fibroblast; [5]): 0.75 | Growth Rate (Fibroblast; [6]): 0.99 | Growth Rate (Fibroblast; [7]): 0.78 | Growth Rate (Fibroblast; [8]): 0.93 | Growth Rate (Fibroblast; [9]): 0.8 | Growth Rate (Fibroblast; [10]): 0.79 | Growth Rate (U2OS; [1]): -0.29 | Growth Rate (U2OS; [2]): 0.28 | Growth Rate (U2OS; [3]): 0.64 | Growth Rate (U2OS; [5]): 0.64 | Growth Rate (U2OS; [6]): 0.9 | Growth Rate (U2OS; [7]): 0.72 | Growth Rate (U2OS; [8]): 0.97 | Growth Rate (U2OS; [9]): 0.76 | Growth Rate (HEK-293T; [1]): 0.53 | Growth Rate (HEK-293T; [2]): 0.42 | Growth Rate (HEK-293T; [5]): 0.8 | Growth Rate (HEK-293T; [7]): 0.64 | Growth Rate (HEK-293T; [8]): 0.93 | Growth Rate (HEK-293T; [9]): 0.52 | Growth Rate (HEK-293T; [10]): 0.83

Nc1nccc(-c2ccn3c(N)nccc23)n1
Growth Rate (Fibroblast; [1]): -0.59 | Growth Rate (Fibroblast; [2]): -0.24 | Growth Rate (Fibroblast; [6]): 0.84 | Growth Rate (Fibroblast; [8]): 0.76 | Growth Rate (Fibroblast; [10]): 0.72 | Growth Rate (U2OS; [1]): 0.63 | Growth Rate (U2OS; [2]): 0.39 | Growth Rate (U2OS; [4]): 0.89 | Growth Rate (U2OS; [6]): 0.92 | Growth Rate (U2OS; [8]): 0.85 | Growth Rate (U2OS; [9]): 0.98 | Growth Rate (U2OS; [10]): 0.82 | Growth Rate (HEK-293T; [1]): -0.7 | Growth Rate (HEK-293T; [2]): 0.28 | Growth Rate (HEK-293T; [7]): 0.93 | Growth Rate (HEK-293T; [9]): 0.76 | Growth Rate (HEK-293T; [10]): 1

CN(C(=O)/C=C/c1ccoc1)[C@@H]1CC[C@@]2(O)[C@H]3Cc4ccc(O)c5c4[C@@]2(CCN3CC2CC2)[C@H]1O5 [NALFURAFINE]
Growth Rate (Fibroblast; [2]): 0.55 | Growth Rate (U2OS; [1]): 0.56 | Growth Rate (U2OS; [2]): -0.09 | Growth Rate (U2OS; [3]): 0.82 | Growth Rate (U2OS; [6]): 1 | Growth Rate (U2OS; [7]): 0.68 | Growth Rate (U2OS; [8]): 0.88 | Growth Rate (U2OS; [9]): 0.77 | Growth Rate (HEK-293T; [1]): 0.87 | Growth Rate (HEK-293T; [2]): 0.49 | Growth Rate (HEK-293T; [6]): 0.91 | Growth Rate (HEK-293T; [10]): 0.91
